The target of assay [1] is T1, muscarinic acetylcholine M1 receptor (Homo sapiens, UniProt P11229).
T1 construct: HA (N); expressed in transfected cells; host or cells: HEK293A cells
T1 sequence (P11229 2-460): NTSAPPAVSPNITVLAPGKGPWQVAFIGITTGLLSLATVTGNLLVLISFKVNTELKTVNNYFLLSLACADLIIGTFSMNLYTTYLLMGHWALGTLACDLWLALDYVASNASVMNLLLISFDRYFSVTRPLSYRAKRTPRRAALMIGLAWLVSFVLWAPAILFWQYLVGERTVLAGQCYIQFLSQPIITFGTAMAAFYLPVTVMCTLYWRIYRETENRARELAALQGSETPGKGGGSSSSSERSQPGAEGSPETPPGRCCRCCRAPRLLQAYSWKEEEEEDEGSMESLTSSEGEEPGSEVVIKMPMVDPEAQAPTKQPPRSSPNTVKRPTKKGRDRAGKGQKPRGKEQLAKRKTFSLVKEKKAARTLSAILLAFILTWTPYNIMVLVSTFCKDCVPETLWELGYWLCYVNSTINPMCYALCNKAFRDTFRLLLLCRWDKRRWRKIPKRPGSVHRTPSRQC
Put plainly: BRET-based Venus-mGsq recruitment assay at M1R-Nluc. In kind it is cell-based. Here is the method: The transfected cells were seeded at a density of 40,000 cells per well into a white opaque 96-well plate. […] Following a 10 min incubation period in the dark, the measurement was started on a TECAN Spark multimode microplate reader, prewarmed to 37 °C. After the three baseline measurements, the ligands diluted in HBSS were added (10 μl) and the measurement continued for a further 15 min. Nluc bioluminescence was detected between 460 and 500 nm. The emission of Venus was detected between 520 and 560 nm.
Figure S3. […] Experiments were performed in HEK293 cells.
Background: BRET reads energy transfer from a luciferase to a nearby fluorophore.

In the next assay the target is T2, Nluc-FZD4 (Homo sapiens, UniProt Q9ULV1).
T2 construct: expressed in transfected cells; host or cells: ΔFZD1–10 HEK293T cells
T2 sequence (Q9ULV1 37-537): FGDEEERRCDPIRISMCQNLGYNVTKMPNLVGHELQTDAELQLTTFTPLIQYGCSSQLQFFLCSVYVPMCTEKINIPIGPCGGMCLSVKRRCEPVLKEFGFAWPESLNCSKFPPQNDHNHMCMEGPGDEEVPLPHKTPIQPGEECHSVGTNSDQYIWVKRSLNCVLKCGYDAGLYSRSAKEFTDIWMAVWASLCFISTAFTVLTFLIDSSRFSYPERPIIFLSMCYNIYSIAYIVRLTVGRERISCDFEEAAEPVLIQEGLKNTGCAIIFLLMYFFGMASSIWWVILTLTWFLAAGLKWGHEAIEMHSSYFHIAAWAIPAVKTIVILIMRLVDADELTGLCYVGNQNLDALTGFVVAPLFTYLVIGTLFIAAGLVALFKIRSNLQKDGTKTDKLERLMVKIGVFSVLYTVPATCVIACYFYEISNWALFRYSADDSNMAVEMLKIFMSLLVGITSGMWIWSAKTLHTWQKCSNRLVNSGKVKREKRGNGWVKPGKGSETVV
Put plainly: BRET-based BODIPY-cyclopamine competition binding at Nluc-FZD4. The following applies: BODIPY-cyclopamine 200 nM; ΔFZD1-10 HEK293T cells; read-out: pIC50 (11) mean ± SEM, Nluc-FZD4 (converted). Here is the method: After 24 h, cells were washed once with Hanks' balanced salt solution (HBSS), followed by the addition of 80 μl of HBSS. Next, 10 μl of the competitive ligand, that is, the tested SAG1.3 derivative (either in different concentrations for the concentration–response curves or at a final concentration of 10 μM for the first screens) and 10 μl of the fluorescent tracer BODIPY–cyclopamine (final concentration: 300 nM for the first screens, 200 nM for the concentration–response experiments) were added. All serial dilutions were prepared in HBSS. The cells were incubated for 90 min at 37 °C without additional CO2, after which 10 μl of luciferase substrate diluted in HBSS (furimazine; Promega, N1572, final dilution: 1:1000 for first screening) and coelenterazine h (Biosynth; final concentration: 5 μM for concentration–response experiments) were added to the cells. Following a 10 min incubation period in the dark, the measurement was started on a BMG Labtech ClarioStar or TECAN Spark multimode microplate reader, prewarmed to 37 °C. Nluc bioluminescence was detected between 460 and 490 nm (ClarioStar) or 460 and 500 nm (TECAN Spark). The emission of the fluorescent tracer was detected between 520 and 550 nm (ClarioStar) or between 520 and 560 nm (TECAN Spark). […]

Consider `CC(=O)Nc1cccc(C(=O)NC2CCC(N(Cc3cccc(-c4ccncc4)c3)C(=O)c3sc4ccccc4c3Cl)CC2)c1` (stereo not drawn) [compound 11, N-((1r,4r)-4-(3-Acetamidobenzamido)cyclohexyl)-3-chloro-N-(3-(pyridin-4-yl)benzyl)benzo[b]thiophene-2-carboxamide], for which the “Effect on carbachol-induced M1-mediated mini-Gsq response” value in assay [1] (10 µM compound +/- carbachol) is “nor affected the concentration-dependent M1-mediated mini-Gsq response”. Further, in assay [1] (increasing concentrations of compound), the “mini-Gsq recruitment, compound alone (agonist mode)” value is on record as “neither elicited a mini-Gsq recruitment on its own”. In addition, the IC50 on Nluc-FZD4 is 955 nM.
